# Read-outs that look alike come from different tables or passages of the source.
# Key:
# [1] = target: FLNA pentapeptide of SEQ ID NO: 1 (Bn-VAKGL) (Homo sapiens, UniProt P21333); assay: FITC-NLX-based FLNA screening assay (inhibition of FITC-naloxone binding to Bn-VAKGL on streptavidin plates); details: 10 nM FITC-NLX
# mu opiate receptor (MOR) = assay: MOR agonist activity using [35S]GTPγS binding assay in striatal membranes; type: biochemical; details: for MOR agonist activity ([35S]GTPγS binding), FLNA-Binding Compound as Agonist 1 μM + BFNA: 1 μM compound + 1 μM β-funaltrexamine
# Outline: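 Striatal membranes (200 μg) were preincubated 5 min at 30 °C in HEPES pH 7.5 with 100 mM NaCl, 1 mM MgCl2 and 0.5 nM [35S]GTPγS, then 5 min more with 0.1–10 μM compound. Gαo was immunoprecipitated and bound radioactivity counted by scintillation.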
# [2] = read-out: Percent Binding Inhibition, FLNA-binding compound 0.01 μM
# [3] = read-out: Percent Binding Inhibition, FLNA-binding compound 0.1 μM
# [4] = read-out: Percent Binding Inhibition, FLNA-binding compound 1 μM
# [5] = Series B, 0.1 μM compound, relative to DAMGO
# [6] = Series B, 0.1 μM compound, [35S]GTPγS binding to Gαo, striatal membranes
# [7] = Series B, 1 μM compound + 1 μM β-FNA
# [8] = Series B, 1 μM compound + β-FNA, relative to DAMGO + BFNA
# [9] = Series B, 1 μM compound, relative to DAMGO
# [10] = Series B, 1 μM compound, [35S]GTPγS binding to Gαo, striatal membranes
# [11] = FLNA-binding compound 0.01 μM, read-out: Percent Binding Inhibition
# [12] = FLNA-binding compound 0.1 μM, read-out: Percent Binding Inhibition
# [13] = FLNA-binding compound 1 μM, read-out: Percent Binding Inhibition
# [14] = 0.1 μM compound relative to DAMGO
# [15] = 1 μM compound + BFNA relative to DAMGO + BFNA
# [16] = 1 μM compound relative to DAMGO
# [17] = Series C-2, 0.1 μM compound, relative to DAMGO
# [18] = Series C-2, 0.1 μM compound, [35S]GTPγS binding to Gαo, striatal membranes
# [19] = Series C-2, 1 μM compound + 1 μM β-FNA
# [20] = Series C-2, 1 μM compound + β-FNA, relative to DAMGO + BFNA
# [21] = Series C-2, 1 μM compound, relative to DAMGO
# [22] = Series C-2, 1 μM compound, [35S]GTPγS binding to Gαo, striatal membranes
Structure (SMILES),"inhibition at 0.01 µM [1, 2]","inhibition at 0.1 µM [1, 3]","inhibition at 1 µM [1, 4]",% DAMGO (0.1 μM) (mu opiate receptor (MOR); [5]),"MOR agonist activity, percent [35S]GTPγS binding at the stated compound concentration (mu opiate receptor (MOR); [6])","MOR agonist activity, percent [35S]GTPγS binding at the stated compound concentration (mu opiate receptor (MOR); [7])",% DAMGO + BFNA (mu opiate receptor (MOR); [8]),% DAMGO (1 μM) (mu opiate receptor (MOR); [9]),"MOR agonist activity, percent [35S]GTPγS binding at the stated compound concentration (mu opiate receptor (MOR); [10])","inhibition at 0.01 µM [1, 11]","inhibition at 0.1 µM [1, 12]","inhibition at 1 µM [1, 13]",other results
COc1c2c(cc3c1C(CC(=O)CCc1ccc(O)cc1)[N+](C)(C)CC3)OCO2 (stereo not drawn) [Compound B0028],38.2%,42.8%,49.1%,103.5%,199.1%,55.0%,125.3%,131.0%,357.7%,–,–,–,–
COc1c2c(cc3c1C(CC(=O)CCc1ccc(F)cc1)[N+](C)(C)CC3)OCO2 (stereo not drawn) [Compound B0018],37.2%,43.7%,47.6%,70.3%,118.8%,45.6%,69.1%,53.5%,143.0%,–,–,–,–
OC(COc1cccc(C(F)(F)F)c1)CN1CCc2ccccc2C1 (stereo not drawn) [Compound A0054],–,–,–,–,–,–,–,–,–,28.7%,35.8%,41.4%,"MOR agonist activity ([35S]GTPγS binding), FLNA-Binding Compound as Agonist 0.1 μM (mu opiate receptor (MOR); 0.1 μM compound): 74.9%; % DAMGO (0.1 μM) (mu opiate receptor (MOR); [14]): 44.4%; MOR agonist activity ([35S]GTPγS binding), FLNA-Binding Compound as Agonist 1 μM (mu opiate receptor (MOR); 1 μM compound): 159.2%; MOR agonist activity ([35S]GTPγS binding), FLNA-Binding Compound as Agonist 1 μM + BFNA (mu opiate receptor (MOR)): 114.1%; % DAMGO + BFNA (mu opiate receptor (MOR); [15]): 348.9%; % DAMGO (1 μM) (mu opiate receptor (MOR); [16]): 63.9%"
COc1c2c(cc3c1OCO3)CCN(CC(O)COC1CC(C)CCC1C(C)C)C2 (stereo not drawn) [Compound A0061],–,–,–,–,–,–,–,–,–,27.5%,38.9%,42.8%,"MOR agonist activity ([35S]GTPγS binding), FLNA-Binding Compound as Agonist 0.1 μM (mu opiate receptor (MOR); 0.1 μM compound): 110.3%; % DAMGO (0.1 μM) (mu opiate receptor (MOR); [14]): 70.7%; MOR agonist activity ([35S]GTPγS binding), FLNA-Binding Compound as Agonist 1 μM (mu opiate receptor (MOR); 1 μM compound): 197.1%; MOR agonist activity ([35S]GTPγS binding), FLNA-Binding Compound as Agonist 1 μM + BFNA (mu opiate receptor (MOR)): 10.7%; % DAMGO + BFNA (mu opiate receptor (MOR); [15]): 26.8%; % DAMGO (1 μM) (mu opiate receptor (MOR); [16]): 85.5%"
O=[N+]([O-])c1ccc(S(=O)(=O)N2CCC3(CC2)NCCS3)cc1 [Compound C0044],–,–,–,–,–,–,–,–,–,37.3%,43.9%,50.6%,"% DAMGO (0.1 μM) (mu opiate receptor (MOR); [17]): 102.8%; MOR agonist activity, percent [35S]GTPγS binding at the stated compound concentration (mu opiate receptor (MOR); [18]): 173.7%; MOR agonist activity, percent [35S]GTPγS binding at the stated compound concentration (mu opiate receptor (MOR); [19]): 59.1%; % DAMGO + BFNA (mu opiate receptor (MOR); [20]): 356.0%; % DAMGO (1 μM) (mu opiate receptor (MOR); [21]): 128.0%; MOR agonist activity, percent [35S]GTPγS binding at the stated compound concentration (mu opiate receptor (MOR); [22]): 280.1%"
COc1ccc(CCC(=O)CC2c3c(cc4c(c3OC)OCO4)CC[N+]2(C)C)c(OC)c1 (stereo not drawn) [Compound B0043],30.8%,39.2%,46.8%,42.4%,74.8%,166.4%,632.7%,97.6%,248.1%,–,–,–,–
COc1ccc(C(=O)N2CCC3(CC2)OCCN3S(=O)(=O)c2ccc(OC)cc2)cc1 [Compound C0018],–,–,–,–,–,–,–,–,–,42.3%,45.9%,53.4%,"% DAMGO (0.1 μM) (mu opiate receptor (MOR); Series C-1, 0.1 μM compound, relative to DAMGO): 110.7%; Concentration of FLNA-Binding Compound as Agonist 0.1 μM (mu opiate receptor (MOR); Series C-1, 0.1 μM compound, [35S]GTPγS binding to Gαo, striatal membranes): 195.5%; Concentration of FLNA-Binding Compound as Agonist 1 μM + BFNA (mu opiate receptor (MOR); Series C-1, 1 μM compound + 1 μM β-FNA): 106.5%; % DAMGO + BFNA (mu opiate receptor (MOR); Series C-1, 1 μM compound + β-FNA, relative to DAMGO + BFNA): 162.1%; % DAMGO (1 μM) (mu opiate receptor (MOR); Series C-1, 1 μM compound, relative to DAMGO): 95.5%; Concentration of FLNA-Binding Compound as Agonist 1 μM (mu opiate receptor (MOR); Series C-1, 1 μM compound, [35S]GTPγS binding to Gαo, striatal membranes): 247.7%"
CC(=O)c1ccc(S(=O)(=O)N2CC(CN(C)C)OC23CCNCC3)cc1 (stereo not drawn) [Compound C0118M],56.6%,61.4%,62.4%,–,–,–,–,–,–,–,–,–,"% DAMGO (0.1 μM) (mu opiate receptor (MOR); [17]): 87.8%; MOR agonist activity, percent [35S]GTPγS binding at the stated compound concentration (mu opiate receptor (MOR); [18]): 166.2%; MOR agonist activity, percent [35S]GTPγS binding at the stated compound concentration (mu opiate receptor (MOR); [19]): 79.2%; % DAMGO + BFNA (mu opiate receptor (MOR); [20]): 163.3%; % DAMGO (1 μM) (mu opiate receptor (MOR); [21]): 105.4%; MOR agonist activity, percent [35S]GTPγS binding at the stated compound concentration (mu opiate receptor (MOR); [22]): 261.5%"

# — patent US10363239B2, “Method for inhibiting growth of cancer cells” (Pain Therapeutics, Inc., priority 2013, dated 2019)
